Measurements as given in patent publication US20260041679A1, “METHOD OF TREATING HYPERTENSION WITH THE ALDOSTERONE SYNTHASE INHIBITOR BAXDROSTAT” (CINCOR PHARMA, INC., priority 2022, published 2026).

System: patients with uHTN
Test: Study 124 Part 1: seated SBP in patients with uncontrolled hypertension (Example 9)
Format: in vivo, human
Set-up: key to Model-Based Least-Squares Mean Change from Baseline (SBP) / LSMEANS change from baseline (SBP) / Model-Based Least-Square Mean Change from Baseline (SBP): LS mean change from baseline in seated SBP, mmHg
Description: Study 124 is a double-blind, placebo-controlled, dose range finding, multicenter study conducted in patients with uHTN receiving background antihypertensive agent(s) that are either an ACEI or an ARB, an ACEI/ARB plus a thiazide diuretic, or an ACEI/ARB plus a calcium channel blocker. The study consists of two parts: Part 1 consists of an 8-week treatment period in which the patients are to be assigned to one of 4 dose groups in equal ratio testing 0.5 mg, 1 mg, and 2 mg baxdrostat effects compared to a placebo. Patients are to administer double-blind baxdrostat tablets once per day while they continue taking the background antihypertensive medications. After 8 weeks of double-blind treatment, patients were to enter part 2 of the study unless the patient was assigned to the 2 mg group and the SBP remains ≥130 mmHg. In part 2 of the study, all patients are to cease dosing with background antihypertensive medication and take only baxdrostat 2 mg dose as a monotherapy for 4 weeks.
Key inclusion criteria include that patients are on a stable regimen of anti-hypertensive agents for at least 8 weeks; and have a seated BP≥140 mmHg. Key exclusion criteria include a seated SBP≥180 mmHg and estimated glomerular filtration rate (eGFR)<30 mL/min/1.73 m^2.
In this table, CI=confidence interval, DBP=diastolic blood pressure, LS=least squares, SBP=systolic blood pressure, SE=standard error. The LS means, CIs, and p-values are from an MMRM model with change from baseline as the dependent variable with randomized treatment, visit, and treatment-by-visit interaction as fixed categorical effects; along with covariates of the baseline value, race (African American versus non-African American), and the type of background antihypertensive regimen. The restricted maximum likelihood estimation (REML) approach will be used with an unstructured covariance matrix and the Kenward-Roger approximation for degrees of freedom.

[1] = 2 mg (N = 9), mITT, Female Non-Hispanic Female Patients
[2] = 2 mg (N = 13), mITT, Non-Hispanic Male Patients
[3] = 2 mg (N = 16), mITT Population for Hispanic Compliant Patients
[4] = 2 mg (N = 16), mITT, Hispanic Male Patients
[5] = 2 mg (N = 19), mITT, Female Hispanic/Latino Patients
[6] = Female Hispanic/Latino, mITT, 0.5 mg, Week 6
[7] = Female Hispanic/Latino, mITT, 0.5 mg, Week 8
[8] = Hispanic or Latino, ITT, 0.5 mg, Week 6
[9] = Hispanic or Latino, ITT, 0.5 mg, Week 8
[10] = Hispanic or Latino, ITT, 1 mg, Week 6
[11] = Hispanic or Latino, ITT, 1 mg, Week 8
[12] = Hispanic or Latino, ITT, 2 mg, Week 6
[13] = Hispanic or Latino, ITT, 2 mg, Week 8
[14] = Placebo (N = 8), mITT Population for Compliance for Black Patients

CCC(=O)N[C@@H]1CCCc2c(-c3ccc4c(c3)CCC(=O)N4C)cncc21 [baxdrostat, (R)—N-(4-(1-methyl-2-oxo-1,2,3,4-tetrahydroquinolin-6-yl)-5,6,7,8-tetrahydroisoquinolin-8-yl) propionamide]
LS Mean Change from Baseline (SE) in SBP (1 mg, Wk 6): −13.5 (1.88) mm Hg
SBP Change from Baseline to Week 8, Mean (2 mg): −19.3 mmHg
SBP Change from Baseline to Week 8, Median (2 mg): −18.0 mmHg
SBP at Week 8, Median (2 mg): 125.0 mmHg
efficacy in adherent Hispanic/Latino patients (2 mg): effective in adherent Hispanic/Latino, but efficacy response was substantially lower
efficacy in the Black/African American subgroup (2 mg): effective
Model-Based Least-Squares Mean Change from Baseline (SBP) (2 mg (N = 9), Week 2, mITT, Female Non-Hispanic Female Patients): −15.6
Model-Based Least-Squares Mean Change from Baseline (SBP) (2 mg (N = 9), Week 4, mITT, Female Non-Hispanic Female Patients): −23.8
Model-Based Least-Squares Mean Change from Baseline (SBP) (2 mg (N = 9), Week 6, mITT, Female Non-Hispanic Female Patients): −26.1
Model-Based Least-Squares Mean Change from Baseline (SBP) (2 mg (N = 9), Week 8, mITT, Female Non-Hispanic Female Patients): −32.8
Comp w/ Placebo at Week 6, Diff (95% CI) [1]: −15.8 (−29.06, −2.47)
Comp w/ Placebo at Week 8, Diff (95% CI) [1]: −19.8 (−29.87, −9.73)
Model-Based Least-Squares Mean Change from Baseline (SBP) (2 mg (N = 13), Week 2, mITT, Non-Hispanic Male Patients): −16.2
Model-Based Least-Squares Mean Change from Baseline (SBP) (2 mg (N = 13), Week 4, mITT, Non-Hispanic Male Patients): −17.4
Model-Based Least-Squares Mean Change from Baseline (SBP) (2 mg (N = 13), Week 6, mITT, Non-Hispanic Male Patients): −21.5
Model-Based Least-Squares Mean Change from Baseline (SBP) (2 mg (N = 13), Week 8, mITT, Non-Hispanic Male Patients): −22.3
Comp w/ Placebo at Week 6, Diff (95% CI) [2]: −11.6 (−22.42, −0.83)
Comp w/ Placebo at Week 8, Diff (95% CI) [2]: −7.4 (−18.32, 3.53)
LSMEANS change from baseline (SBP) (2 mg (N = 16), Week 2, mITT Population for Hispanic Compliant Patients): −4.6
Model-Based Least-Squares Mean Change from Baseline (SBP) (2 mg (N = 16), Week 2, mITT, Hispanic Male Patients): −5.1
LSMEANS change from baseline (SBP) (2 mg (N = 16), Week 4, mITT Population for Hispanic Compliant Patients): −13.9
Model-Based Least-Squares Mean Change from Baseline (SBP) (2 mg (N = 16), Week 4, mITT, Hispanic Male Patients): −14.6
LSMEANS change from baseline (SBP) (2 mg (N = 16), Week 6, mITT Population for Hispanic Compliant Patients): −15.4
Model-Based Least-Squares Mean Change from Baseline (SBP) (2 mg (N = 16), Week 6, mITT, Hispanic Male Patients): −17.5
LSMEANS change from baseline (SBP) (2 mg (N = 16), Week 8, mITT Population for Hispanic Compliant Patients): −22.8
Model-Based Least-Squares Mean Change from Baseline (SBP) (2 mg (N = 16), Week 8, mITT, Hispanic Male Patients): −21.9
Comp w Placebo at Week 6, Diff (95% CI) [3]: −6.0 (−13.91, 2.00)
Comp w Placebo at Week 8, Diff (95% CI) [3]: −6.6 (−13.07, −0.13)
Comp w/ Placebo at Week 6, Diff (95% CI) [4]: −6.2 (−14.14, 1.67)
Comp w/ Placebo at Week 8, Diff (95% CI) [4]: −3.2 (−9.28, 2.87)
Model-Based Least-Squares Mean Change from Baseline (SBP) (2 mg (N = 19), Week 2, mITT, Female Hispanic/Latino Patients): −6.0
Model-Based Least-Squares Mean Change from Baseline (SBP) (2 mg (N = 19), Week 4, mITT, Female Hispanic/Latino Patients): −7.1
Model-Based Least-Squares Mean Change from Baseline (SBP) (2 mg (N = 19), Week 6, mITT, Female Hispanic/Latino Patients): −8.0
Model-Based Least-Squares Mean Change from Baseline (SBP) (2 mg (N = 19), Week 8, mITT, Female Hispanic/Latino Patients): −12.6
Comp w/ Placebo at Week 6, Diff (95% CI) [5]: −1.5 (−13.53, 10.44)
Comp w/ Placebo at Week 8, Diff (95% CI) [5]: 6.5 (−4.02, 16.98)
SBP at Week 8, Mean (2 mg QD, mITT): 126.6 mmHg
SBP LS mean change from baseline (SE), MMRM (2 mg, Week 8): −19.8 (1.67) mm Hg
SBP LS mean difference (SE) vs placebo (2 mg, Week 8): −3.2 (2.23) mmHg
LS Mean Change from Baseline (SE) in SBP (2 mg, Wk 2): −8.8 (1.65) mm Hg
LS Mean Change from Baseline (SE) in SBP (2 mg, Wk 4): −13.6 (1.65) mm Hg
LS Mean Change from Baseline (SE) in SBP (2 mg, Wk 6): −15.7 (1.93) mm Hg
Model-based LS mean change from baseline (LSMEANS) (Female Hispanic/Latino, mITT, 0.5 mg, Week 2): −6.2
Model-based LS mean change from baseline (LSMEANS) (Female Hispanic/Latino, mITT, 0.5 mg, Week 4): −13.4
Comp w/ Placebo, Diff (95% CI) [6]: −4.9 (−16.80, 6.97) 0.412
Model-based LS mean change from baseline (LSMEANS) [6]: −11.3
Comp w/ Placebo, Diff (95% CI) [7]: 3.0 (−7.45, 13.46) 0.567
Model-based LS mean change from baseline (LSMEANS) [7]: −16.1
Model-based LS mean change from baseline (LSMEANS) (Hispanic or Latino, ITT, 0.5 mg, Week 2): −6.9
Model-based LS mean change from baseline (LSMEANS) (Hispanic or Latino, ITT, 0.5 mg, Week 4): −13.0
Comp w/ Placebo, Diff (95% CI) [8]: −4.1 (−10.84, 2.69) 0.235
Model-based LS mean change from baseline (LSMEANS) [8]: −13.3
Comp w/ Placebo, Diff (95% CI) [9]: −1.1 (−4.54, 6.66) 0.709
Model-based LS mean change from baseline (LSMEANS) [9]: −17.1
Model-based LS mean change from baseline (LSMEANS) (Hispanic or Latino, ITT, 1 mg, Week 2): −7.3
Model-based LS mean change from baseline (LSMEANS) (Hispanic or Latino, ITT, 1 mg, Week 4): −8.1
Comp w/ Placebo, Diff (95% CI) [10]: −1.4 (−8.71, 5.92)
Model-based LS mean change from baseline (LSMEANS) [10]: −10.6
Comp w/ Placebo, Diff (95% CI) [11]: 4.0 (−2.00, 10.06)
Model-based LS mean change from baseline (LSMEANS) [11]: −14.1
Model-based LS mean change from baseline (LSMEANS) (Hispanic or Latino, ITT, 2 mg, Week 2): −5.0
Model-based LS mean change from baseline (LSMEANS) (Hispanic or Latino, ITT, 2 mg, Week 4): −10.1
Comp w/ Placebo, Diff (95% CI) [12]: −2.5 (−9.31, 4.24)
Model-based LS mean change from baseline (LSMEANS) [12]: −11.8
Comp w/ Placebo, Diff (95% CI) [13]: 1.9 (−3.69, 7.44)
Model-based LS mean change from baseline (LSMEANS) [13]: −16.3
Model-Based Least-Square Mean Change from Baseline (SBP) (Placebo (N = 8), Week 2, mITT Population for Compliance for Black Patients): −7.7
Model-Based Least-Square Mean Change from Baseline (SBP) (Placebo (N = 8), Week 4, mITT Population for Compliance for Black Patients): −18.3
Model-Based Least-Square Mean Change from Baseline (SBP) (Placebo (N = 8), Week 6, mITT Population for Compliance for Black Patients): −20.6
Model-Based Least-Square Mean Change from Baseline (SBP) (Placebo (N = 8), Week 8, mITT Population for Compliance for Black Patients): −27.6
Comp w/ Placebo at Week 6, Diff (95% CI) [14]: −10.3 (−24.04, 3.43)
Comp w/ Placebo at Week 8, Diff (95% CI) [14]: −13.4 (−25.04, −1.69)
